Source: patent US20250289816A1, “SALTS AND PHARMACUTICAL COMPOSITIONS THEREOF FOR THE TREATMENT OF INFLAMMATORY DISORDERS” (Alfasigma S.p.A., priority 2014, published 2025)
Converted amounts (≈) assume the structure as drawn. One block for each compound: values may come before it.

What was measured:
[1] = Dog bioavailability study; type: in vivo, beagle dogs; details: for Cmax / Tmax / Exposure AUC: target dose 10 mg/kg
Experimental: The dogs are not fasted before dosing, and have free access to water. Every day of the treatment, a half food ration is provided after the T0 blood sampling, 8 to 17 min before treatment, and the second half ration is given just after dosing or 1 h after treatment for period 2. A 3 days washout period is ensured between treatments.
The capsule composition is described in Table XX below.
The capsules are administered orally with water (5-10 mL), to provide good oesophageal transit. Each animal is checked at least once daily.
Blood is collected from the jugular vein into lithium heparinised tubes at TO (before food administration) and then at 1 h, 2 h, 4 h, 6 h, 8 h, 10 h, and 24 h post treatment.
Plasma is then obtained from blood by centrifugation (2500 g for 10 min at 4° C.), and stored at −20° C. until analysis.
After vortex mixing and centrifugation at 4° C., the supernatants are diluted with a 0.5 volume of HPLC grade water in a midi-eppendorf 96-well plate. The plate is sealed and shaken to ensure sample homogeneity prior to analysis.
Pharmacokinetic analysis is performed using WinNonlin™ software version 5.3, using concentrations from individual animals. Non-compartmental analysis is applied to determine the PK parameters (Cmax, Tmax, AUC0-last, t1/2, etc. . . . )
Concentrations below the limit of detection are set to zero for descriptive statistics and PK parameter calculations.

[2] = Solubility study in different solvents (UV-spectrometry); type: physicochemical; details: at least 24 h
Experimental: The supersaturated solution is then filtered and the concentration of product in the filtrate is determined using UV-spectrometry.
In water, the influence of the pH is adjusted to pH 2, pH 7, and pH 9. HCl and NaOH are used to adjust the pH.

[3] = Dissolution in solvents (salt Protocol 1); type: physicochemical; details: DCM, up to 20 relative volumes, agitated at 50° C.; not in the other nine solvents
Source text: The solvent is selected from isopropanol, ethanol, methanol, isopropyl acetate, THF, TBME, acetone, methyl ethyl ketone, DCM, and MeCN.

[4] = Thermodynamic aqueous solubility by HPLC; type: physicochemical; details: salt obtained by Protocol 4
[5] = Complementary salt analysis (XRPD, stability evaluation); type: physicochemical; details: salt obtained by Protocol 4
[6] = GVS analysis; type: physicochemical
Source text: The evolution of the material is followed via XPRD at various time points.

[7] = single oral administration, 1 × 100 mg capsule
[8] = single oral administration, 4 × 25 mg capsules
[9] = oral capsules, on average at the 2 capsule strengths

Cmax [1, 7]: 797 ng/mL
Tmax [1, 7]: 8.0 h
Cmax [1, 8]: 894 ng/mL
Exposure AUC [1, 8]: 10400 ng·h/mL
Tmax [1, 8]: 6.0 h
Solubility ([2]; 0.005M HCl, 20° C.): 252 µg/mL (≈ 592 µM)
Solubility ([2]; HP-β-CD 40% pH3, 20° C.): 550 µg/mL (≈ 1290 µM)
dissolution in solvent [3]: almost full dissolution
Structure (SMILES): O=C(Nc1nc2cccc(-c3ccc(CN4CCS(=O)(=O)CC4)cc3)n2n1)C1CC1 [Compound 1, cyclopropanecarboxylic acid {5-[4-(1,1-dioxo-thiomorpholin-4-ylmethyl)-phenyl]-[1,2,4]triazolo[1,5-a]pyridin-2-yl}-amide]

aqueous solubility [4]: 1900 µg/mL
hygroscopicity of the salt [5]: non-hygroscopic
stability of the salt ([5]; stability evaluation 1 week at 40° C./75% Relative humidity): stable
Structure (SMILES): Cl.O=C(Nc1nc2cccc(-c3ccc(CN4CCS(=O)(=O)CC4)cc3)n2n1)C1CC1 [HCl salt]

in vivo exposure compared with Compound 1 [1, 9]: improved exposure
rate of absorption compared with Compound 1 [1, 9]: more rapidly absorbed
Cmax [1, 7]: 2630 ng/mL
Exposure AUC [1, 7]: 21700 ng·h/mL
Tmax [1, 7]: 2.0 h
Cmax [1, 8]: 3050 ng/mL
Exposure AUC [1, 8]: 33600 ng·h/mL
Tmax [1, 8]: 2.0 h
T1/2 ([1]; single oral administration, one range across both forms and both capsule strengths): Range 4.43-8.96 h
Solubility ([2]; 0.005M HCl, 20° C.): 3100 µg/mL
Solubility ([2]; 0.01M HCl + 2.0% Tween 80, 20° C.): 2790 µg/mL
Solubility ([2]; 0.01M HCl, 20° C.): 2340 µg/mL
Solubility ([2]; Acetone, 20° C.): 415 µg/mL
Solubility ([2]; Acetonitrile, 20° C.): 7360 µg/mL
Solubility ([2]; Acetonitrile/water (1/1), 20° C.): 25600 µg/mL
Solubility ([2]; Acetonitrile/water (4/1), 20° C.): 7810 µg/mL
Solubility ([2]; Dichloromethane, 20° C.): 388 µg/mL
Solubility ([2]; Ethanol, 20° C.): 764 µg/mL
Solubility ([2]; HP-β-CD 40% pH2, 20° C.): 7880 µg/mL
Solubility ([2]; HP-β-CD 40% pH3, 20° C.): 9330 µg/mL
Solubility ([2]; HP-β-CD 40% pH4, 20° C.): 2790 µg/mL
Solubility ([2]; Methanol, 20° C.): 743 µg/mL
Solubility ([2]; PEG400, 20° C.): 36600 µg/mL
Solubility ([2]; Propanol, 20° C.): 663 µg/mL
Solubility ([2]; Propylene glycol, 20° C.): 11700 µg/mL
Solubility ([2]; Tetrahydrofuran, 20° C.): 208 µg/mL
Solubility ([2]; Water (purified), 20° C.): 3170 µg/mL
Solubility ([2]; Water pH2, 20° C.): 8050 µg/mL
Solubility ([2]; Water pH7, 20° C.): 2260 µg/mL
Solubility ([2]; Water pH9, 20° C.): 2680 µg/mL
Solubility ([2]; Water/ethanol 1/1, 20° C.): 8680 µg/mL
Solubility ([2]; t-butyl methyl ether, 20° C.): 26.3 µg/mL
change in form at elevated RH ([6]; GVS, followed by XRPD): No change in form
temperature of dehydration to Compound 1·HCl anhydrous ([6]; upon heating): above 60 °C
Structure (SMILES): Cl.O.O.O.O=C(Nc1nc2cccc(-c3ccc(CN4CCS(=O)(=O)CC4)cc3)n2n1)C1CC1 [Compound 1·HCl·3H2O]
